Measured values reported in a melting point compilation (Tetko et al.; mined from patent text by program, amines drawn as free bases though some values may be those of a salt).

With `O=C1CCC(N2Cc3c(OCc4ccc(CN5Cc6ccccc6C5)cc4)cccc3C2=O)C(=O)N1` (configuration not stated) the melting point was 153 to 155 °C. `Nc1ccc2c(C(F)(F)F)cc(C(F)(F)F)nc2n1` showed a melting point of 198 to 204 °C. Work on `Nc1cccc(-c2ccc(CCN3CCC(N)CC3)cc2)n1` yielded a melting point of 190 to 195 °C. Work on `CCOC(=O)c1cc(=O)c2c(OCC(O)COc3ccc(C(C)(C)C)cc3)cccc2o1` (configuration not stated) yielded a melting point of 99 to 102 °C. With `COc1ccc(-c2sc3cnccc3c2OC(C)=O)cc1` the melting point was 141 to 142 °C. In the case of `CSc1cc2c(cc1C(F)(F)F)N(C(=O)Nc1cccc(C(=O)NCCN(C)C)c1)CC2`, the melting point is reported as 91 to 93 °C. With `Cc1[nH]cc2c(=O)n(-c3ccc(Cl)cc3)nc-2c1-c1cccc(NCc2cccnc2)c1` the melting point was 284 to 287 °C. Compound `CNS(=O)(=O)c1cc(C)sc1CC(=O)O` has a melting point of 109 °C. `COc1nc(C)nc(OC)c1C=S` gave a melting point of 136 °C. With `NC(c1cc(-c2ccc(F)cc2)c(-c2ccc(F)cc2)[nH]1)(C(F)(F)F)C(F)(F)F` the melting point was 88 to 89 °C. In the case of `CC(=O)Nc1cc(C)c2c(C)c(C)[nH]c2c1`, the melting point is reported as 255 °C. `COC(=O)NCc1cc(C(C)=NO)ccc1Cl` showed a melting point of 124 to 127 °C. Work on `O=S(=O)(c1ccccc1)n1c2ccc(Br)cc2c2c(Cl)ccnc21` yielded a melting point of 212 to 214 °C. With `CCCCOC(=O)CS(=O)(=O)C=C1SC=CS1` the melting point was 87 to 88 °C. Work on `O=S(=O)(NCC(O)(Cn1cncn1)c1ccc(Cl)cc1Cl)c1cccs1` (configuration not stated) yielded a melting point of 169 to 180 °C. For `O=C(O)c1ccccc1CN1C(=O)C2(COc3cc4c(cc32)OCO4)c2ccccc21` (configuration not stated), the melting point was over 250 °C. In the case of `Cc1ccc(C)n1-c1ccc(OC(C)(C)C(=O)O)cc1`, the melting point is reported as 178 to 180 °C. Work on `CN(C)CCOc1ccc2oc(-c3cc4ccccc4cn3)cc(=NO)c2c1` yielded a melting point of 203 to 205 °C. `CN1C(=O)CC[C@]2(C)c3ccc(-c4ccc(C#N)cc4)cc3CC[C@@H]12` gave a melting point of 148 to 150 °C. With `CCN(CC)C(=O)Nc1ccc(-c2c[nH]c(=O)cn2)cc1` the melting point was 154 to 155 °C. For `Oc1ccc(-c2nnc(-c3ccc(Oc4ccccc4)cc3)o2)cc1`, the melting point was 204 to 206 °C. Work on `CCCn1cc(C2CCC(=O)CC2)c2cc(C#N)ccc21` yielded a melting point of 103 to 104 °C. In the case of `C=Cn1cc(C(=O)O)c(=O)c2cc(F)c(Cl)cc21`, the melting point is reported as 210 °C. With `CC(C)(C)N(C(=O)COc1nnc(C(F)(F)F)s1)c1ccc(Cl)cc1` the melting point was 82 °C. For `OCC1OC(n2cnc3c(NCC4Cc5cccc6cccc4c56)ncnc32)C(O)C1O` (configuration not stated), the melting point was 173 to 175 °C. Compound `CCOC(=O)Cc1sc(Sc2nccc(C)c2C(=O)O)nc1C` has a melting point of 169 to 171 °C. Work on `COc1ccc(-c2nc([N+](=O)[O-])n(C(=O)c3ccccc3)c2-c2ccc(OC)cc2)cc1` yielded a melting point of 161 to 163 °C. Work on `Cc1cccc(SCn2cc(Cl)cnc2=O)c1` yielded a melting point of 134 °C. `CCOC(=O)c1nc2n(n1)-c1ccc([N+](=O)[O-])cc1C(c1ccccc1F)=NC2` gave a melting point of 165 to 167 °C. `CC1Nc2ccc(-c3ccc(C#N)n3C)cc2C(C)(C)O1` (configuration not stated) showed a melting point of 195 to 196 °C. For `Cn1cc(C2=C(c3c4n(c5ccccc35)C[C@@H]3CN(C=O)C[C@@H]3C4)C(=O)NC2=O)c2ccccc21` (relative stereo), the melting point was 316 to 318 °C. Compound `CC(=O)Oc1ccccc1C(=O)CNc1c(C(=O)O)[nH]c2cc(Cl)ccc12` has a melting point of 184 to 186 °C. Compound `CCNC(=O)NCCNc1nc(-c2ccc(F)cc2C)c2ccc(=O)n(-c3c(F)cccc3F)c2n1` has a melting point of 130 to 133 °C. For `CCCCCCCCc1ccc(C(O)C(=O)c2ccccc2)cc1` (configuration not stated), the melting point was 85 to 89 °C. Compound `CC1(C)Oc2ccc(C#N)cc2[C@@H](NC(=O)c2ccc(C(F)(F)F)cc2)[C@@H]1O` (relative stereo) has a melting point of 225 °C. Compound `COc1ccc(Nc2nc(O)c3sccc3n2)c(C)c1` has a melting point of 246 to 248 °C. In the case of `O=C(Cl)c1ccccc1SSc1ccccc1C(=O)Cl`, the melting point is reported as 145 to 148 °C. Compound `O=C(Nc1cc(Cl)cc(Cl)c1)c1cnc(Nc2ccccc2)nc1C(F)(F)F` has a melting point of 228 to 229 °C. With `CC(=N)Nc1ccc(NC(C)=O)cc1` the melting point was 131 to 134 °C. In the case of `[N-]=[N+]=C1C(=O)Oc2cc(OCc3ccccc3)ccc2C1=O`, the melting point is reported as 191 °C. `CN(C)C=C1C(=O)N(c2cccc(F)c2)c2ccccc21` showed a melting point of 87 to 88.5 °C. Compound `COc1ccc(N2c3ccccc3S(=O)(=O)c3ccccc32)cc1` has a melting point of 265 to 266 °C. Compound `Clc1nc(-n2ccnc2)c2ccccc2c1-c1ccccc1` has a melting point of 165 to 168 °C. `C[C@](O)(COc1ccc(Cl)cc1)C(=O)Nc1ccc(C#N)c(C(F)(F)F)c1` showed a melting point of 146 to 148 °C. With `O=C(O)CCCC(=O)NCC1(S)CCCCC1` the melting point was 73 to 74 °C. Compound `CCc1nc(Cl)c(C(=O)N(C)CC)n1Cc1ccc2oc(-c3ccccc3NC(=O)OC(C)(C)C)c(Br)c2c1` has a melting point of 95 to 96 °C. With `CCC(F)c1cc(N2CCNCC2)cc(-c2ccccc2C#N)c1Cl` (configuration not stated) the melting point was 159 °C. With `Cc1cc2c(s1)SCC1CC(=O)N(c3ccc(Cl)cc3)N=C21` (configuration not stated) the melting point was 142 to 144 °C. With `CN1CCN(c2nn3ccnc3c3c2CCCC3)CC1` the melting point was 79.5 °C. Work on `CNc1ncc2c(-c3cccc(Cl)c3)cc(-c3cccc(CC(=O)O)c3)c(OC)c2n1` yielded a melting point of 258 to 261 °C. With `COc1ccc2cc(C3CCN(C[C@H](O)COc4cccc5oc(-c6nnc(C)o6)cc45)CC3)ccc2c1` the melting point was 156 to 158 °C. Work on `CCOC(=O)C(C(=O)CBr)C1Cc2ccccc2C(c2ccccc2)N1` (configuration not stated) yielded a melting point of 107 to 109 °C. With `Cn1c(C(F)(F)F)cc(=O)n(-c2cc(OCOc3ccc(Cl)cc3)c(Cl)cc2F)c1=O` the melting point was 120 to 122 °C. Work on `COC(=O)c1ccc(O)c(C(=O)CC(=O)c2cc(C)ccc2OC(C)C)c1` yielded a melting point of 85 to 86 °C. In the case of `O=C1CCCN1C(=O)Oc1cccc(Br)c1`, the melting point is reported as 95 to 96 °C. For `COc1ccc(CSc2nc(-c3ccccc3)n(Cc3cc4c(cc3Cl)OCO4)c2C=O)cc1`, the melting point was 120 °C. Work on `CC1=NCCc2c1n(-c1ccccc1)c1ccccc21` yielded a melting point of 110 to 112 °C. Compound `COC(=O)c1cc(OCc2ccc(OCc3nc(-c4ccco4)oc3C)c(OC)c2)nn1-c1ccccc1` has a melting point of 146 to 147 °C. Work on `CCCC(=O)c1cnc2c(N)cccc2c1Nc1ccccc1C` yielded a melting point of 108 to 110 °C. Compound `CCCCN(C(=S)NC)c1ccc(Cl)nc1` has a melting point of 129 to 130 °C. Work on `CCC(CC)c1nnc(SC)n(N)c1=O` yielded a melting point of 50 to 56 °C. For `N#Cc1ccc2c(c1)COC2c1ccc(F)cc1` (configuration not stated), the melting point was 96 to 98 °C. Compound `Clc1ccc2cc(OC3CCCCO3)ccc2n1` (configuration not stated) has a melting point of 122 to 124 °C. Work on `Cc1ccc(NC(=S)N2CCC(O)C2)c(C)c1` (configuration not stated) yielded a melting point of 164 to 166 °C. `O=[N+]([O-])c1ccccc1/C=C/c1ncon1` gave a melting point of 128 °C. For `C=CCc1cc(C(=O)c2ccnn2C)c(Cl)c(Cl)c1OCC(=O)O`, the melting point was 111 to 113 °C. Compound `Cc1nnc2cccc(-c3ccccn3)n12` has a melting point of 168 to 170 °C. With `N#CC1=CC(CF)(CF)Oc2ccc(Br)cc21` the melting point was 105 to 107 °C. With `CN(C)C=Nc1sc(C=O)c(S(=O)(=O)c2ccccc2)c1C#N` the melting point was 262 °C. In the case of `CCCCCS(=O)(=O)NC(=O)c1ccc2[nH]cc(Cc3ccc(Cl)cc3Cl)c2c1`, the melting point is reported as 157 to 158 °C. For `CN(C)C=CC(=O)c1cccc(Cl)c1`, the melting point was 68 to 70 °C. Compound `O=[N+]([O-])c1ccc(CCN2CCC(N3CCc4ccccc43)CC2)cc1` has a melting point of 95 to 97 °C.
